Tested on: 475296-252-R-J1-PDC spheroid viability
Assay: Anticancer human tumor 475296-252-R-J1-PDC patient-derived rectal carcinoma cell line growth inhibition [PI3K]
Settings: spheroids with HUVEC and MSC; for IC50: curve of first compound; for viability, T/C: stronger effect = lower value
Method in brief: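 Complex 3D spheroids (cancer cells + endothelial HUVEC + mesenchymal stem cells); drug pairs of targeted agent x inavolisib/alpelisib/duvelisib/copanlisib; half-log series from ~Cmax, max 10 microM if Cmax unknown; endpoint viability.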

[1] = second compound 0.00316 µM, first compound 0.0316 µM
[2] = second compound 0.00316 µM, first compound 0.1 µM
[3] = second compound 0.00316 µM, first compound 0.316 µM
[4] = second compound 0.00316 µM, first compound 1 µM
[5] = second compound 0.00316 µM, first compound 3.16 µM
[6] = second compound 0.00316 µM, first compound 10 µM
[7] = second compound 0.01 µM, first compound 0.0316 µM
[8] = second compound 0.01 µM, first compound 0.1 µM
[9] = second compound 0.01 µM, first compound 0.316 µM
[10] = second compound 0.01 µM, first compound 1 µM
[11] = second compound 0.01 µM, first compound 3.16 µM
[12] = second compound 0.01 µM, first compound 10 µM
[13] = second compound 0.0316 µM, first compound 0.0316 µM
[14] = second compound 0.0316 µM, first compound 0.1 µM
[15] = second compound 0.0316 µM, first compound 0.316 µM
[16] = second compound 0.0316 µM, first compound 1 µM
[17] = second compound 0.0316 µM, first compound 3.16 µM
[18] = second compound 0.0316 µM, first compound 10 µM
[19] = second compound 0.1 µM, first compound 0.0316 µM
[20] = second compound 0.1 µM, first compound 0.1 µM
[21] = second compound 0.1 µM, first compound 0.316 µM
[22] = second compound 0.1 µM, first compound 1 µM
[23] = second compound 0.1 µM, first compound 3.16 µM
[24] = second compound 0.1 µM, first compound 10 µM
[25] = second compound 0.316 µM, first compound 0.0316 µM
[26] = second compound 0.316 µM, first compound 0.1 µM
[27] = second compound 0.316 µM, first compound 0.316 µM
[28] = second compound 0.316 µM, first compound 1 µM
[29] = second compound 0.316 µM, first compound 3.16 µM
[30] = second compound 0.316 µM, first compound 10 µM
[31] = second compound 1 µM, first compound 0.0316 µM
[32] = second compound 1 µM, first compound 0.1 µM
[33] = second compound 1 µM, first compound 0.316 µM
[34] = second compound 1 µM, first compound 1 µM
[35] = second compound 1 µM, first compound 3.16 µM
[36] = second compound 1 µM, first compound 10 µM
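Also: spheroids exposed to agents for seven days before readout.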

Compound: CC(C)NCC(C(=O)N1CCN(c2ncnc3c2C(C)CC3O)CC1)c1ccc(Cl)cc1 (stereo unspecified) + CC(Nc1ccc2c(c1)OCCn1cc(N3C(=O)OCC3C(F)F)nc1-2)C(N)=O
- IC50 (second compound 0.00316 µM): > 10 µM
- IC50 (second compound 0.01 µM): > 10 µM
- IC50 (second compound 0.0316 µM): > 10 µM
- IC50 (second compound 0.1 µM): > 10 µM
- IC50 (second compound 0.316 µM): > 10 µM
- IC50 (second compound 1 µM): > 10 µM
- viability, T/C [1]: 85.7%
- viability, T/C [2]: 86.5%
- viability, T/C [3]: 95.3%
- viability, T/C [4]: 75.7%
- viability, T/C [5]: 67.6%
- viability, T/C [6]: 59.3%
- viability, T/C [7]: 82.7%
- viability, T/C [8]: 78.5%
- viability, T/C [9]: 88.3%
- viability, T/C [10]: 67.6%
- viability, T/C [11]: 65.3%
- viability, T/C [12]: 67.5%
- viability, T/C [13]: 92.7%
- viability, T/C [14]: 94.3%
- viability, T/C [15]: 91.4%
- viability, T/C [16]: 95.4%
- viability, T/C [17]: 63.5%
- viability, T/C [18]: 62.4%
- viability, T/C [19]: 84.2%
- viability, T/C [20]: 86.4%
- viability, T/C [21]: 90.5%
- viability, T/C [22]: 92.5%
- viability, T/C [23]: 78.4%
- viability, T/C [24]: 57.8%
- viability, T/C [25]: 84.9%
- viability, T/C [26]: 80%
- viability, T/C [27]: 84.9%
- viability, T/C [28]: 82.6%
- viability, T/C [29]: 87.4%
- viability, T/C [30]: 66.2%
- viability, T/C [31]: 93.5%
- viability, T/C [32]: 86.2%
- viability, T/C [33]: 83.4%
- viability, T/C [34]: 77.8%
- viability, T/C [35]: 77%
- viability, T/C [36]: 67.8%

Compound: CCN1CCN(Cc2ccc(Nc3ncc(F)c(-c4cc(F)c5nc(C)n(C(C)C)c5c4)n3)nc2)CC1 + Cc1nc(NC(=O)N2CCCC2C(N)=O)sc1-c1ccnc(C(C)(C)C(F)(F)F)c1
- IC50 (second compound 0.0316 µM): > 1 µM
- IC50 (second compound 0.1 µM): > 1 µM
- IC50 (second compound 0.316 µM): > 1 µM
- IC50 (second compound 1 µM): > 1 µM
- IC50 (second compound 3.16 µM): > 1 µM
- IC50 (second compound 10 µM): > 1 µM
- viability, T/C (second compound 0.0316 µM, first compound 0.00316 µM): 95.8%
- viability, T/C (second compound 0.0316 µM, first compound 0.01 µM): 93.4%
- viability, T/C [13]: 107%
- viability, T/C [14]: 90%
- viability, T/C [15]: 114%
- viability, T/C [16]: 104%
- viability, T/C (second compound 0.1 µM, first compound 0.00316 µM): 95.8%
- viability, T/C (second compound 0.1 µM, first compound 0.01 µM): 97.8%
- viability, T/C [19]: 112%
- viability, T/C [20]: 90.4%
- viability, T/C [21]: 98.8%
- viability, T/C [22]: 84.3%
- viability, T/C (second compound 0.316 µM, first compound 0.00316 µM): 107%
- viability, T/C (second compound 0.316 µM, first compound 0.01 µM): 105%
- viability, T/C [25]: 87.6%
- viability, T/C [26]: 99.4%
- viability, T/C [27]: 98%
- viability, T/C [28]: 88.6%
- viability, T/C (second compound 1 µM, first compound 0.00316 µM): 81.4%
- viability, T/C (second compound 1 µM, first compound 0.01 µM): 90.5%
- viability, T/C [31]: 98.7%
- viability, T/C [32]: 88.5%
- viability, T/C [33]: 89.2%
- viability, T/C [34]: 87.7%
- viability, T/C (second compound 3.16 µM, first compound 0.00316 µM): 98.2%
- viability, T/C (second compound 3.16 µM, first compound 0.01 µM): 108%
- viability, T/C (second compound 3.16 µM, first compound 0.0316 µM): 82.5%
- viability, T/C (second compound 3.16 µM, first compound 0.1 µM): 95%
- viability, T/C (second compound 3.16 µM, first compound 0.316 µM): 90.7%
- viability, T/C (second compound 3.16 µM, first compound 1 µM): 73.1%
- viability, T/C (second compound 10 µM, first compound 0.00316 µM): 93.3%
- viability, T/C (second compound 10 µM, first compound 0.01 µM): 88.3%
- viability, T/C (second compound 10 µM, first compound 0.0316 µM): 96.7%
- viability, T/C (second compound 10 µM, first compound 0.1 µM): 81.1%
- viability, T/C (second compound 10 µM, first compound 0.316 µM): 90.4%
- viability, T/C (second compound 10 µM, first compound 1 µM): 70.4%

Compound: C[C@@H](NC(=O)c1ncnc(N)c1Cl)c1ncc(C(=O)Nc2cc(C(F)(F)F)c(Cl)cn2)s1 + COc1c(OCCCN2CCOCC2)ccc2c3n(c(=NC(=O)c4cnc(N)nc4)nc12)CCN3
- IC50 (second compound 0.00316 µM): > 10 µM
- IC50 (second compound 0.01 µM): > 10 µM
- IC50 (second compound 0.0316 µM): > 10 µM
- IC50 (second compound 0.1 µM): 7.87 µM
- IC50 (second compound 0.316 µM): 9.5 µM
- IC50 (second compound 1 µM): 3.76 µM
- viability, T/C [1]: 82.4%
- viability, T/C [2]: 88%
- viability, T/C [3]: 94.8%
- viability, T/C [4]: 101%
- viability, T/C [5]: 94.5%
- viability, T/C [6]: 79.3%
- viability, T/C [7]: 88%
- viability, T/C [8]: 86.8%
- viability, T/C [9]: 90.4%
- viability, T/C [10]: 85.9%
- viability, T/C [11]: 101%
- viability, T/C [12]: 67.3%
- viability, T/C [13]: 78.6%
- viability, T/C [14]: 83.7%
- viability, T/C [15]: 79.7%
- viability, T/C [16]: 78.1%
- viability, T/C [17]: 80.8%
- viability, T/C [18]: 61%
- viability, T/C [19]: 74.1%
- viability, T/C [20]: 74.1%
- viability, T/C [21]: 83.5%
- viability, T/C [22]: 69.3%
- viability, T/C [23]: 80.1%
- viability, T/C [24]: 43.3%
- viability, T/C [25]: 62.5%
- viability, T/C [26]: 61.8%
- viability, T/C [27]: 53.9%
- viability, T/C [28]: 67.4%
- viability, T/C [29]: 69%
- viability, T/C [30]: 32.6%
- viability, T/C [31]: 61.9%
- viability, T/C [32]: 58.6%
- viability, T/C [33]: 74.4%
- viability, T/C [34]: 58.9%
- viability, T/C [35]: 54.9%
- viability, T/C [36]: 23.8%
